The values that follow come from US4297353A, “Non-irritating injectable dosage forms” (priority 1980, dated 1981).

Data set [1] relates to muscles of rabbits (sacrospinales group). Briefly: Intramuscular tissue irritation in rabbits, microscopic observations (Example 2).
Data set [2] shares this test system. The following applies: rabbit, in vivo.

Molecules are shown by their SMILES. Like-named read-outs stand apart in the source and are kept apart here.

For `CSc1ccc2c(c1)N(CCC1CCCCN1C)c1ccccc1S2` (stereo not drawn) [Mellaril base, thioridazine], in data set [1] (Day 4 post-injection, regardless of concentration), the “evidence of suppuration in the inflammatory zone” value is “high-frequency evidence of suppuration”. The “evidence of connective tissue irritation” value in data set [1] (Day 7 and Day 14) was “became apparent by Day 7 and more frequent and extreme in its occurrence by Day 14”.
Regarding `CN(C)CCCN1c2ccccc2Sc2ccc(Cl)cc21` [chloropromazine, Chlorpromazine], the “evidence of connective tissue irritation” value in data set [2] is “became apparent by Day 7 and more frequent and extreme in its occurrence by Day 14”.
